# From patent US20200069691A1, “HETEROCYCLIC COMPOUNDS AS HIV PROTEASE INHIBITORS” (Merck Sharp & Dohme Corp., priority 2016, published 2020)
# pIC50: −log10 of the molar value.
# Biological target: T1, wild-type HIV-1 protease (Human immunodeficiency virus type 1 group M subtype B, UniProt P04585)
# T1 construct: Escherichia coli expressed wild-type HIV-1 protease protein
# Test: Assay for Inhibition of Microbial Expressed HIV Protease (peptide substrate cleavage, LC-MS/MS readout)
# Assay type: biochemical
# Conditions: E. coli expressed wild-type HIV-1 protease, mean of at least two independent experiments, read-out: HIV Pr Enzyme HIV1 PR IC50
# Procedure, shortened: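 Cleavage of Val-Ser-Gln-Asn-(β-naphthyl)Ala-Pro-Ile-Val (400 μM) by recombinant HIV-1 protease ([…]) ran 1 h at 30 °C after a 30 min room-temperature inhibitor preincubation in 50 mM sodium acetate pH 5.5. Product peak areas by LC-MS/MS gave inhibition; values average at least two independent runs.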
row,SMILES,pIC50
1,"CN1CCN(C(=O)c2cc(CN3C(=N)NC(c4ccc(F)cc4)(c4ccc(F)cc4)C3=O)ccc2C(F)(F)F)CC1=O [Compound 157, 4-{[5-{[4,4-bis(4-fluorophenyl)-2-imino-5-oxoimidazolidin-1-yl]methyl}-2-(trifluoromethyl)phenyl]carbonyl}-1-methylpiperazin-2-one]",7.85
2,"N=C1NC(c2ccc(F)cc2)(c2ccc(F)cc2)C(=O)N1Cc1ccc(C(F)(F)F)c(C(=O)N2Cc3cncnc3C2)c1 [Compound 138, 3-[3-(5,7-dihydro-6H-pyrrolo[3,4-d]pyrimidin-6-ylcarbonyl)-4-(trifluoromethyl)benzyl]-5,5-bis(4-fluorophenyl)-2-iminoimidazolidin-4-one]",8.56
3,"N=C1NC(c2ccc(F)cc2)(c2ccc(F)cc2)C(=O)N1Cc1ccc(C(F)(F)F)c(C(=O)N2CCCC2)c1 [Compound 180, 5,5-bis(4-fluorophenyl)-2-imino-3-[3-(pyrrolidin-1-ylcarbonyl)-4-(trifluoromethyl)benzyl] imidazolidin-4-one]",7.10
4,"CC(C)CC1(c2ccccc2)NC(=N)N(Cc2cccc(C(=O)N3CCN(C(=O)c4ccco4)CC3)c2)C1=O (stereo not drawn) [Compound 268, 3-(3-{[4-(furan-2-ylcarbonyl)piperazin-1-yl]carbonyl}benzyl)-2-imino-5-(2-methylpropyl)-5-phenylimidazolidin-4-one]",7.57
5,"N=C1NC(c2ccc(F)cc2)(c2ccc(F)cc2)C(=O)N1Cc1ccc(Cl)c(C(=O)N2Cc3ccc(F)cc3C2)c1 [Compound 377, 3-{4-chloro-3-[(5-fluoro-1,3-dihydro-2H-isoindol-2-yl)carbonyl]benzyl}-5,5-bis(4-fluorophenyl)-2-iminoimidazolidin-4-one]",8.00
6,"Cc1nc2c([nH]1)CN(C(=O)c1cccc(CN3C(=N)NC(CC(C)C)(c4ccccc4)C3=O)c1)C2 (stereo not drawn) [Compound 274, 2-imino-3-{3-[(2-methyl-4,6-dihydropyrrolo[3,4-d]imidazol-5(1H)-yl)carbonyl]benzyl}-5-(2-methylpropyl)-5-phenylimidazolidin-4-one]",7.54
7,"N=C1NC(c2ccc(F)cc2)(c2ccc(F)cc2)C(=O)N1Cc1cccc(C(=O)N2CCN(C(=O)c3ccco3)CC2)c1 [Compound 267, 5,5-bis(4-fluorophenyl)-3-(3-{[4-(furan-2-ylcarbonyl)piperazin-1-yl]carbonyl}benzyl)-2-iminoimidazolidin-4-one]",7.58
8,"CCC(c1cccc(C(=O)N2Cc3ccccc3C2)c1)N1C(=N)NC(c2ccccc2)(c2ccccc2)C1=O (stereo not drawn) [Compound 225, 3-{1-[3-(1,3-dihydro-2H-isoindol-2-ylcarbonyl)phenyl]propyl}-2-imino-5,5-diphenylimidazolidin-4-one]",7.92
9,"CC(C)CCC1(c2ccc(F)cc2)NC(=N)N(Cc2ccc(C(F)(F)F)c(C(=O)N3Cc4nccnc4C3)c2)C1=O (stereo not drawn) [Compound 168, 3-[3-(5,7-dihydro-6H-pyrrolo[3,4-b]pyrazin-6-ylcarbonyl)-4-(trifluoromethyl)benzyl]-5-(4-fluorophenyl)-2-imino-5-(3-methylbutyl)imidazolidin-4-one]",7.41
10,"N#Cc1cccc(-c2ncc3c(n2)CN(C(=O)c2cc(CN4C(=N)N[C@](CCCC(F)(F)F)(c5ccc(F)cc5)C4=O)ccc2C(F)(F)F)C3)c1 [Compound 79, 3-(6-{[5-{[(4R)-4-(4-fluorophenyl)-2-imino-5-oxo-4-(4,4,4-trifluoro-butyl)imidazolidin-1-yl]methyl}-2-(trifluoromethyl)-phenyl]carbonyl}-6,7-dihydro-5H-pyrrolo[3,4-d]pyrimidin-2-yl)benzonitrile]",7.97
11,"CC(C)CC1(c2ccccc2)NC(=N)N(Cc2cccc(C(=O)N3Cc4cccnc4C3)c2)C1=O (stereo not drawn) [Compound 259, 3-[3-(5,7-dihydro-6H-pyrrolo[3,4-b]pyridin-6-ylcarbonyl)benzyl]-2-imino-5-(2-methylpropyl)-5-phenylimidazolidin-4-one]",7.65
12,"N=C1NC(c2ccc(F)cc2)(c2ccccn2)C(=O)N1Cc1cccc(C(=O)N2Cc3ccccc3C2)c1 (stereo not drawn) [Compound 256, 3-[3-(1,3-dihydro-2H-isoindol-2-ylcarbonyl)benzyl]-5-(4-fluorophenyl)-2-imino-5-pyridin-2-ylimidazolidin-4-one]",7.68
13,"COC(=O)N1CCN(C(=O)c2cccc(CN3C(=N)NC(c4ccc(F)cc4)(c4ccc(F)cc4)C3=O)c2)CC1 [Compound 305, methyl 4-[(3-{[4,4-bis(4-fluorophenyl)-2-imino-5-oxoimidazolidin-1-yl]methyl}phenyl)carbonyl] piperazine-1-carboxylate]",7.19
14,"COc1ncc2c(n1)CN(C(=O)c1cccc(CN3C(=N)NC(c4ccc(F)cc4)(c4ccc(F)cc4)C3=O)c1)C2 [Compound 205, 5,5-bis(4-fluorophenyl)-2-imino-3-{3-[(2-methoxy-5,7-dihydro-6H-pyrrolo[3,4-d]pyrimidin-6-yl)carbonyl]benzyl} imidazolidin-4-one]",8.12
15,"COC(=O)N1CCN(C(=O)c2cc(CN3C(=N)NC(c4ccccc4)(c4ccccc4)C3=O)ccc2C(F)(F)F)CC1 [Compound 161, methyl 4-({5-[(2-imino-5-oxo-4,4-diphenylimidazolidin-1-yl)methyl]-2-(trifluoromethyl)phenyl}-carbonyl)piperazine-1-carboxylate]",7.60
16,"N=C1NC(c2ccc(F)cc2)(c2ccc(F)cc2)C(=O)N1Cc1cc(C(=O)N2Cc3ccccc3C2)ccn1 [Compound 398, 3-{[4-(1,3-dihydro-2H-isoindol-2-ylcarbonyl)pyridin-2-yl]methyl}-5,5-bis(4-fluorophenyl)-2-iminoimidazolidin-4-one]",7.72
17,"N=C1NC(c2ccccc2)(c2ccccc2)C(=O)N1Cc1cccc(C(=O)N2CCn3c(Cc4ccccc4)cnc3C2)c1 [Compound 337, 3-{3-[(3-benzyl-5,6-dihydroimidazo [1,2-a]pyrazin-7(8H)-yl)carbonyl]benzyl}-2-imino-5,5-diphenylimidazolidin-4-one]",7.14
18,"N=C1N[C@](CCCC(F)(F)F)(c2ccc(F)cc2)C(=O)N1Cc1ccc(C(F)(F)F)c(C(=O)N2Cc3cnc(-c4cnn(CCO)c4)nc3C2)c1 [Compound 12, (5R)-5-(4-fluorophenyl)-3-[3-({2-[1-(2-hydroxyethyl)-1H-pyrazol-4-yl]-5,7-dihydro-6H-pyrrolo[3,4-d]pyrimidin-6-yl}carbonyl)-4-(trifluoromethyl)benzyl]-2-imino-5-(4,4,4-trifluorobutyl)imidazolidin-4-one]",8.88
19,"N=C1N[C@](CCCC(F)(F)F)(c2ccc(F)cc2)C(=O)N1Cc1ccc(C(F)(F)F)c(C(=O)N2CCN3c4ccccc4CC3C2)c1 (stereo partly drawn) [Compound 132, (5R)-5-(4-fluorophenyl)-2-imino-3-[3-(3,4,10,10a-tetrahydropyrazino-[1,2-a]indol-2(1H)-ylcarbonyl)-4-(trifluoromethyl)benzyl]-5-(4,4,4-trifluorobutyl)imidazolidin-4-one]",7.06
20,"CC(C)CC(c1ccc(C(F)(F)F)c(C(=O)N2Cc3nccnc3C2)c1)N1C(=N)N[C@](CC2CC2)(c2ccccc2)CC1=O (stereo partly drawn) [Compound 77, (6S)-6-(cyclopropylmethyl)-3-{1-[3-(5,7-dihydro-6H-pyrrolo[3,4-b]pyrazin-6-ylcarbonyl)-4-(trifluoromethyl)phenyl]-3-methyl-butyl}-2-imino-6-phenyltetra-hydropyrimidin-4(1H)-one]",7.98
21,"N=C1NC(c2ccc(F)cc2)(c2cccc(-c3cccnc3)c2)C(=O)N1Cc1cccc(C(=O)N2Cc3ccccc3C2)c1 (stereo not drawn) [Compound 284, 3-[3-(1,3-dihydro-2H-isoindol-2-ylcarbonyl)benzyl]-5-(4-fluorophenyl)-2-imino-5-(3-pyridin-3-ylphenyl)imidazolidin-4-one]",7.49
22,"CC(C)CC1(c2ccccc2)NC(=N)N(Cc2cccc(C(=O)N3CCc4ccccc4C3)c2)C1=O (stereo not drawn) [Compound 318, 3-[3-(3,4-dihydroisoquinolin-2(1H)-ylcarbonyl)benzyl]-2-imino-5-(2-methyl-propyl)-5-phenylimidazolidin-4-one]",7.25
23,"N=C1N[C@](CCCC(F)(F)F)(c2ccc(F)cc2)C(=O)N1Cc1ccc(C(F)(F)F)c(C(=O)N2Cc3cnc(-c4ccc5cnccc5c4)nc3C2)c1 [Compound 55, (5R)-5-(4-fluorophenyl)-2-imino-3-{3-[(2-isoquinolin-6-yl-5,7-dihydro-6H-pyrrolo[3,4-d]pyrimidin-6-yl)carbonyl]-4-(trifluoromethyl)-benzyl}-5-(4,4,4-trifluorobutyl)-imidazolidin-4-one]",8.22
24,"COc1ccc(CN2C(=N)NC(c3ccc(Cl)cc3)(c3ccc(Cl)cc3)C2=O)cc1C(=O)N1Cc2ccccc2C1 [Compound 388, 5,5-bis(4-chlorophenyl)-3-[3-(1,3-dihydro-2H-isoindol-2-ylcarbonyl)-4-methoxybenzyl]-2-iminoimidazolidin-4-one]",7.27
25,"COC(=O)N1CCN(C(=O)c2cccc(CN3C(=N)NC(CC(C)C)(c4ccc(F)cc4)C3=O)c2)CC1 (stereo not drawn) [Compound 288, methyl 4-[(3-{[4-(4-fluorophenyl)-2-imino-4-(2-methylpropyl)-5-oxoimidazolidin-1-yl]methyl}phenyl)carbonyl] piperazine-1-carboxylate]",7.45
26,"N#Cc1cccc(-c2cccc(C3(c4ccc(F)cc4)NC(=N)N(Cc4cccc(C(=O)N5Cc6ccccc6C5)c4)C3=O)c2)c1 (stereo not drawn) [Compound 292, 3′-{1-[3-(1,3-dihydro-2H-isoindol-2-ylcarbonyl)benzyl]-4-(4-fluorophenyl)-2-imino-5-oxoimidazolidin-4-yl}biphenyl-3-carbonitrile]",7.41
27,"CC(=O)N1CCN(C(=O)c2cccc(CN3C(=N)NC(c4ccc(F)cc4)(c4ccc(F)cc4)C3=O)c2)CC1 [Compound 335, 3-{3-[(4-acetylpiperazin-1-yl)carbonyl]benzyl}-5,5-bis(4-fluorophenyl)-2-iminoimidazolidin-4-one]",7.15
